Experimental data reported in patent US7678390B2, “Carbon monoxide as a biomarker and therapeutic agent” (priority 1999, dated 2010).

Tests used:
[1] = test system: rats exposed to hyperoxia (>98% O2); type: in vivo, rat
Source text: Animals were exposed to >98% O2 or 98% O2+CO mixtures at a flow rate of 12 liters/min in a 3.70-cubic-foot glass exposure chamber. Animals were supplied food and water during the exposures. CO at a concentration of 1% (10,000 ppm) in compressed air was mixed with >98% O2 in a stainless steel mixing cylinder prior to entering the exposure chamber. By varying the flow rates of CO into the mixing cylinder, concentrations delivered to the exposure chamber were controlled. Because the flow rate was primarily determined by the O2 flow, only the CO flow was changed to generate the different concentrations delivered to the exposure chamber. A carbon monoxide analyzer (Interscan Corporation, Chatsworth, Calif.) was used to measure CO levels continuously in the chamber. Gas samples were taken by the analyzer through a port in the top of the exposure chamber at a rate of 1 liter/min and analyzed by electrochemical detection with a sensitivity of 10 ppm to 600 ppm. CO levels in the chamber were recorded at hourly intervals and there were no changes in chamber CO concentrations once the chamber had equilibrated. O2 concentrations in the chamber were determined using a gas spectrometer.
Lungs were fixed by perfusion with 10% formalin at 20 cm H2O pressure and embedded in paraffin. Lung sections of […] were mounted onto slides pretreated with 3-aminopropylethoxysilane (Digene Diagnostics, Inc., Beltsville, Md.). Slides were baked for 30 min at 60° C. and washed twice in fresh xylene for 5 min to remove the paraffin. The slides were then rehydrated though a series of graded alcohols and then washed in distilled water for 3 min prior to staining with hematoxylin and eosin.
Animals were anesthesized with sodium pentobarbital 24 h after LPS administration or 56 h of hyperoxia exposure. BAL (35 ml/kg) was performed 4 times with PBS (pH 7.4). Cells were pooled from the lavages and centrifuged at 1200 g for 10 min. The supernatant was discarded and cells were resuspended in PBS. Cell counts were performed using a Neubaur hemocytometer. For differential analysis, samples were cytocentrifuged and stained with Diff-Quik. Measurement of Injury Markers Rats were removed at 56 h of hyperoxia and anesthetized with sodium pentobarbital. The pleural effusion was collected by inserting an 18 gauge needle and 10 cc syringe through the diaphragm and withdrawing all fluid present in the pleural cavity. BAL was performed as described above, and the first lavage was centrifuged at 1200 g for 10 min and the supernatant was assayed for the protein albumin as determined by Bromcresol Green Kit (BCG) from Sigma (St. Louis, Mo.). Arterial Blood Oxygen Tension and Carboxyhemoglobin Determination Indwelling catheters were surgically implanted into the carotid arteries of rats anesthetized with 3% v/v isoflurane. Animals were secured in jackets and tethers to allow movement about the cage and access to food and water which were placed inside the exposure chambers. Polyethelene tubing, connected to the catheter and threaded out through an airtight fitting in the lid of the chamber, was used for continuous heparin infusion throughout the exposure (20 U/ml at 0.1 ml/h) to maintain patency of the vessel. At each time point, 1 cc of blood was drawn into a heparinized syringe, sealed and placed on ice until analyzed for oxygen tension. Arterial oxygen tension and carboxyhemoglobin were determined using a BG3 Instrumentation Laboratory Blood Gas Analyzer and Co-oximeter (Boston, Mass.). […]

RAW 264.7 cells = assay: Nitrate/nitrite analysis of cell culture media; type: cell-based, mouse; conditions: 1 h post LPS, presence or absence of CO
Protocol: Nitrate/Nitrite Analysis. Both analytes were measured in the cell culture media which had been ultrafiltered to remove all proteins greater than 10,000 molecular weight. All samples were than analyzed according to the assay kit protocols. (R & D, Minneapolis, Minn.). cGMP Radioimmunoassay (RIA) in macrophages. Macrophages or vascular smooth muscle cells were exposed to CO (250 ppm) or air. 20 min before the end of the exposure 1 mM of 3-isobutyl-1-methylxanthine (IBMX) was added to the cells to prevent phosphodiesterase degradation of cGMP. After 2 h of exposure, cells were removed from the exposure chamber, rinsed with PBS and then 0.5 ml of 75% EtOH was added to the plate and cells were scraped and disrupted via sonication for 5 s. Samples were then centrifuged at 2000 g for 10 min. Supernatants were transferred to fresh tubes and evaporated to dryness. cGMP concentration in the cell extracts was determined by radioimmunoassay (NEN, Boston, Mass.) according to manufacturer's instructions. cGMP was normalized to protein concentration as determined by Bradford assay. Statistical Analysis. Data are expressed as the mean±SE. Differences in measured variables between experimental and control group were assessed using Student's t tests. Statistical calculations were performed on a Macintosh personal computer using the Statview II Statistical Package (Abacus Concepts, Berkeley, Calif.). […]

[2] = hyperoxia in the presence of CO

In the case of [C-]#[O+] [CO, carbon monoxide], the “neutrophil influx into the airways (BAL)” value ([1]; 56 h hyperoxia in the presence of CO (250 ppm)) is reported as “significant reductions”, the lung apoptotic index ([1]; 56 h hyperoxia in the presence of CO (250 ppm), TUNEL/DAPI) is reported as 1.8%±0.12 and the “volume of pleural effusion” value ([1]; 56 h hyperoxia in the presence of a low concentration of CO) is reported as “marked inhibition”. For the same molecule, the lung histology [1, 2] was “completely normal macroscopically and microscopically”, the “protein accumulation into the airways (bronchoalveolar lavage)” value [1, 2] was “significantly lower levels” and the “nitrate or nitrite levels” value (RAW 264.7 cells) was “no increases”.
